Source: patent US20130096105A1, “ArylSulfonamide Based Matrix Metalloprotease Inhibitors” (NOVARTIS AG, priority 2008, published 2013)
Read-outs that look alike come from different tables or passages of the source. One block for each compound: values may come before it.

Legend:
[1] = target: T1, Gelatinase (MMP-2) (Homo sapiens, UniProt P08253); assay: Gelatinase (MMP-2) inhibitory activity, fluorogenic peptide substrate cleavage; format: biochemical
T1 sequence (P08253 110-660): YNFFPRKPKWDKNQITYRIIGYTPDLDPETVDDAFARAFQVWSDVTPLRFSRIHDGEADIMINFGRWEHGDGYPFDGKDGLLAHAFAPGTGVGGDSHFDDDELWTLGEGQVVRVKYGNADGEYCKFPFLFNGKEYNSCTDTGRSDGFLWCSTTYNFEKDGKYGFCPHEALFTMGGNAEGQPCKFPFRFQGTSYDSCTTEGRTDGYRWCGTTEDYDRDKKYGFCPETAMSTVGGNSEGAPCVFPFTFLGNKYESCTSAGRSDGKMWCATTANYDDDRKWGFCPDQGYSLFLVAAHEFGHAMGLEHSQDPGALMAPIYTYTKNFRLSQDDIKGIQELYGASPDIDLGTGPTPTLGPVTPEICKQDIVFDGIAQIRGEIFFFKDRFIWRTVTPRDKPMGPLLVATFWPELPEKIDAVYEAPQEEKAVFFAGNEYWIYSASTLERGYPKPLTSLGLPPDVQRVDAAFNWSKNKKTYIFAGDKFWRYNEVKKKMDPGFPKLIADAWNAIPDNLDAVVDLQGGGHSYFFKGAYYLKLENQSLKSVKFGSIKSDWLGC
Protocol: (§1) Gelatinase (MMP-2) inhibitory activities can be determined as follows: Stock solutions of substrate (MCA-Lys-Pro-Leu-Gly-Leu-Dpa-Ala-Arg-NH2) are prepared in DMSO at a concentration of 1.4 mM. Stock solutions of inhibitors (0.03 μM-3 mM) are also prepared in DMSO. The inhibitors are diluted into the assay solutions, and the controls use an equal volume of DMSO so that the final DMSO concentration from the inhibitor and substrate dilutions in all assays is 1.0%. Assays are performed in an assay buffer (100 mM sodium chloride, 10 μM ZnCl. Sub 2, 10 mM CaCl2, 100 mM Tris-Cl pH7.5, 0.05% Brij-35), containing 1.0% DMSO from the substrate and inhibitor additions. The substrate concentration used in the assays is 5 μM. The assays are carried out at 20-25° C. The fluorescence changes, as a result of substrate cleavage, are monitored using an excitation wavelength of 325 nm and an emission wavelength of 405 nm. The reaction mixtures are added in duplicate into appropriate wells of a 384-well assay plate. The reaction mixtures are preincubated with the inhibitors for 60 minutes The reactions are started by the addition of MMP substrate, and the fluorescence intensity changes are measured after 60 minutes The apparent enzyme activity in the presence of an inhibitor is then compared with that in the absence of any inhibitor to determine the inhibition effect of the inhibitor. These techniques are within the knowledge of one skilled in the art. The inhibition results are expressed as the inhibitor concentrations required to effect 50% inhibition (IC50) of the enzyme activity, as compared with the control (non-inhibited) reactions.

[2] = target: Collagenase-3 (MMP-13) (Homo sapiens, UniProt P45452); assay: Collagenase-3 (MMP-13) inhibitory activity, fluorogenic peptide substrate cleavage; format: biochemical
Protocol: as §1
Collagenase-3 (MMP-13) inhibitory activity is determined as described above. Recombinant pro-collagenase-3 is activated with 1 mM APMA, and stored in the assay buffer after extensive dialysis in the assay buffer.

Structure (SMILES): NS(=O)(=O)c1cc(C(=O)c2ccc(-c3ccc(C(F)(F)F)cc3)cc2)ccc1Cl [Example 62, 2-Chloro-5-(4′-trifluoromethyl-biphenyl-4-carbonyl)-benzenesulfonamide]
IC50 ([1]; read-out: MMP02 IC50): 2210 nM | IC50 ([2]; read-out: MMP13 IC50): 830 nM

Structure (SMILES): CCc1ccc(-c2ccc(C(=O)c3ccc(Cl)c(S(N)(=O)=O)c3)cc2)cc1 [Example 63, 2-Chloro-5-(4′-ethyl-biphenyl-4-carbonyl)-benzenesulfonamide]
IC50 ([1]; read-out: MMP02 IC50): 2050 nM | IC50 ([2]; read-out: MMP13 IC50): 380 nM

Structure (SMILES): NS(=O)(=O)c1cc(C(=O)c2ccc(-c3ccccc3F)cc2)ccc1Cl [Example 64, 2-Chloro-5-(2′-fluoro-biphenyl-4-carbonyl)-benzenesulfonamide]
IC50 ([1]; read-out: MMP02 IC50): 4050 nM | IC50 ([2]; read-out: MMP13 IC50): 7550 nM

Structure (SMILES): NS(=O)(=O)c1cc(C(=O)c2ccc(-c3ccc(F)cc3)cc2)ccc1Cl [Example 65, 2-Chloro-5-(4′-fluoro-biphenyl-4-carbonyl)-benzenesulfonamide]
IC50 ([1]; read-out: MMP02 IC50): 1180 nM | IC50 ([2]; read-out: MMP13 IC50): 1610 nM

Structure (SMILES): NS(=O)(=O)c1cc(C(=O)c2ccc(-c3ccc(Cl)cc3)cc2)ccc1Cl [Example 66, 2-Chloro-5-(4′-chloro-biphenyl-4-carbonyl)-benzenesulfonamide]
IC50 ([1]; read-out: MMP02 IC50): 720 nM | IC50 ([2]; read-out: MMP13 IC50): 630 nM

Structure (SMILES): NS(=O)(=O)c1cc(C(=O)c2ccc(-c3cccc(Br)c3)cc2)ccc1Cl [Example 67, 5-(3′-Bromo-biphenyl-4-carbonyl)-2-chloro-benzenesulfonamide]
IC50 ([1]; read-out: MMP02 IC50): 10200 nM | IC50 ([2]; read-out: MMP13 IC50): 5290 nM

Structure (SMILES): NS(=O)(=O)c1cc(C(=O)c2ccc(-c3cccc([N+](=O)[O-])c3)cc2)ccc1Cl [Example 68, 2-Chloro-5-(3′-nitro-biphenyl-4-carbonyl)-benzenesulfonamide]
IC50 ([1]; read-out: MMP02 IC50): 3440 nM | IC50 ([2]; read-out: MMP13 IC50): 3150 nM

Structure (SMILES): CC(=O)Nc1cccc(-c2ccc(C(=O)c3ccc(Cl)c(S(N)(=O)=O)c3)cc2)c1 [Example 70, N-[4′-(4-Chloro-3-sulfamoyl-benzoyl)-biphenyl-3-yl]-acetamide]
IC50 ([1]; read-out: MMP02 IC50): 11400 nM | IC50 ([2]; read-out: MMP13 IC50): 4010 nM

Other lines, results leading:

IC50 ([1]; read-out: MMP02 IC50): 1090 nM | IC50 ([2]; read-out: MMP13 IC50): 1400 nM
Structure (SMILES): O=C(c1ccc(-c2cccc(CO)c2)cc1)c1ccc(Cl)c(S(=O)(=O)O)c1 [Example 71, 2-Chloro-5-(3′-hydroxymethyl-biphenyl-4-carbonyl)-benzenesulfonic acid]

IC50 ([1]; read-out: MMP02 IC50): 180 nM | IC50 ([2]; read-out: MMP13 IC50): 130 nM
Structure (SMILES): NS(=O)(=O)c1cc(C(=O)c2ccc(-c3ccc(C=O)cc3)cc2)ccc1Cl [Example 72, 2-Chloro-5-(4′-formyl-biphenyl-4-carbonyl)-benzenesulfonamide]

IC50 ([1]; read-out: MMP02 IC50): 980 nM | IC50 ([2]; read-out: MMP13 IC50): 610 nM
Structure (SMILES): NS(=O)(=O)c1cc(C(=O)c2ccc(-c3ccc(C(=O)O)cc3)cc2)ccc1Cl [Example 73, 4′-(4-Chloro-3-sulfamoyl-benzoyl)-biphenyl-4-carboxylic acid]

IC50 ([1]; read-out: MMP02 IC50): 930 nM | IC50 ([2]; read-out: MMP13 IC50): 240 nM
Structure (SMILES): COC(=O)c1ccc(-c2ccc(C(=O)c3ccc(Cl)c(S(N)(=O)=O)c3)cc2)cc1 [Example 74, 4′-(4-Chloro-3-sulfamoyl-benzoyl)-biphenyl-4-carboxylic acid methyl ester]

IC50 ([1]; read-out: MMP02 IC50): 21700 nM | IC50 ([2]; read-out: MMP13 IC50): 12000 nM
Structure (SMILES): NS(=O)(=O)c1cc(C(=O)c2ccc(-c3ccccc3)cc2)ccc1Cl [Example 76, 5-(Biphenyl-4-carbonyl)-2-chloro-benzenesulfonamide]

IC50 ([1]; read-out: MMP02 IC50): 29100 nM | IC50 ([2]; read-out: MMP13 IC50): 23100 nM
Structure (SMILES): Cc1cccc(-c2ccc(C(=O)c3ccc(Cl)c(S(N)(=O)=O)c3)cc2)c1 [Example 77, 2-Chloro-5-(3′-methyl-biphenyl-4-carbonyl)-benzenesulfonamide]

IC50 ([1]; read-out: MMP02 IC50): 270 nM | IC50 ([2]; read-out: MMP13 IC50): 350 nM
Structure (SMILES): CN(C)c1ccc(C(=O)c2ccc(Cl)c(S(N)(=O)=O)c2)cc1 [Example 78, 2-Chloro-5-(4-dimethylamino-benzoyl)-benzenesulfonamide]

IC50 ([1]; read-out: MMP02 IC50): 5720 nM | IC50 ([2]; read-out: MMP13 IC50): 10400 nM
Structure (SMILES): CCN(CC)c1ccc(C(=O)c2ccc(Cl)c(S(N)(=O)=O)c2)cc1 [Example 79, 2-Chloro-5-(4-diethylamino-benzoyl)-benzenesulfonamide]

IC50 ([1]; read-out: IC50 (gelatinase MMP-2)): 55 nM | IC50 ([2]; read-out: IC50 (collagenase-3 MMP-13)): ~113 nM | IC50 ([2]; read-out: MMP13 IC50): 113 nM
Structure (SMILES): NS(=O)(=O)c1cc(C(=O)c2ccc(N3CCCC3)cc2)ccc1Cl [Example 80, 2-Chloro-5-(4-pyrrolidin-1-yl-benzoyl)benzenesulfonamide]
